# Assay results as given in patent publication US5567707A, “Acronycine analogues” (Adir et Compagnie, priority 1994, dated 1996).
# Like-named read-outs stand apart in the source and are kept apart here.
# Assays:
# [1] = Body weight change of hairless mice bearing HT-29 xenograft; format: in vivo; settings: 6.25 mg/kg, D0,7, i.p.
# Text: (§1) HT-29 tumour cells originating from a human colon adenocarcinoma (American Type Culture Collection, U.S.A.) are inoculated by the subcutaneous route into hairless female mice (Iffa Credo, France). The tumour is then amplified by successive passages of tumour fragments of 2-3 mm^3 implanted bilaterally by the subcutaneous route in the animals' flanks. When the tumour has reached a size of 50 mm^3 (that is between 7 and 10 days after the graft), the animals are randomised into groups of 7 to 10 mice and treated in accordance with the protocol indicated. The animals are weighed and their tumour is measured twice a week.
# (§2) The animals are treated by the i.p. route by weekly administration for 2 weeks of the compound of Example 1. D0 corresponds to the first time the tumours are measured and the first administration of compound.
# murine leukaemia L1210 = assay: Cytotoxicity for L1210 cells in culture (Microculture Tetrazolium Assay); format: cell-based; settings: Mus musculus, four doubling periods (48 hours)
# Experimental: A cell line, murine leukaemia L1210, was used. The cells are cultivated in a complete culture medium RPMI 1640, containing 10% foetal calf serum, 2 mM glutamine, 50 units/ml penicillin, […] streptomycin and 10 mM Hepes, pH: 7.4. The cells are distributed on microplates and exposed to the cytotoxic compounds for four doubling periods, that is 48 hours. The number of viable cells is then quantified by a colorimetric assay, the Microculture Tetrazolium Assay (J. Carmichael et al., Cancer Res., 47, 936-942, (1987)). The results are expressed as IC50, the concentration of cytotoxic agent that inhibits the proliferation of treated cells by 50%.
# P388 (murine leukaemia) = assay: Anti-tumour activity in vivo against line P388; set-up: species or system murine; B6D2F1 mice
# Text: (§3) In this Example, the compounds were suspended in Tween 80, then diluted with water. The concentration of Tween is at a maximum of 1% at the strongest doses. The control animals received the carrier only.
# Line P388 (murine leukaemia) was supplied by the National Cancer Institute (Frederick, U.S.A.). The tumour cells (10^6 cells) were inoculated on day 0 into the peritoneal cavity of female B6D2F1 mice (Iffa-Credo, France). Eight to ten mice, of a weight ranging from 18 to 20 g, were used for each experimental group. The compounds were administered via the intraperitoneal route on day 1 or once a day for 4 days (D1-4), and by the intravenous route on day 1.
# The anti-tumour activity is expressed as a T/C %: [formula]
# Table 2 indicates the anti-tumour activity achieved at the optimum doses for each scheme and administration route.
# colon 38 = assay: Anti-tumour activity in vivo against colon 38; set-up: species or system B6D2F1 mice; settings: for median T/C % (tumour volume on D21): D2,9, i.p.
# Experimental: as §3
# Colon 38 (supplied by NCI, Frederick, U.S.A.) was inserted in the form of fragments by the subcutaneous route (s.c.) into female B6D2F1 mice. The compounds were administered by the i.p. route on D2 and D9 and the anti-tumour activity was determined on D21 by measuring the rumour volume (T/C volume, %). [formula]
# [2] = tested on: HT-29 tumour cells (human colon adenocarcinoma); assay: HT-29 xenograft in hairless mice; format: in vivo, human tumour in hairless mice
# Text: as §3
# as §1, with “When the tumour has reached a size of 50 mm^3 (that is between 7 and 10 days after the graft), the animals are randomised into groups of 7 to 10 mice and treated in accordance with the protocol indicated.” left out
# The tumour volume is calculated in accordance with the following formula: [formula]
# The results are expressed as the median relative tumour volume: [formula]
# The anti-tumour activity of the compound administered is evaluated by the minimum value of the median T/C calculated at time t: [formula]
# The minimum value of this parameter is evaluated a minimum of 7 days after the last treatment in accordance with EORTC (European Organization for the […]) standards.
# as §2
# [3] = J. H. Scarffe et al.; cited from earlier work
# experimental models = settings: especially against solid tumours, G. H. Svoboda et al.; cited from earlier work
# [4] = background statement; prevented i.v. administration; cited from earlier work
# Solubility = format: physicochemical; settings: prevents i.v. testing
# [5] = cited from earlier work
smiles,measurement,setting,value
"COc1cc2c(c3c1c(=O)c1ccccc1n3C)[C@@H](OC(C)=O)[C@@H](OC(C)=O)C(C)(C)O2 (relative stereo) [Example 1, (±)-cis-1,2-diacetoxy-1,2-dihydro-acronycine]",Δ weight (D10-D0),[1],-1.1 g
same,IC50,murine leukaemia L1210,4.9 µM
same,T/C % (survival),"P388 (murine leukaemia); D1, i.p., optimum dose 25 mg/kg",289%
same,T/C % (survival),"P388 (murine leukaemia); D1, i.v., optimum dose 25 mg/kg",220%
same,T/C % (survival),"P388 (murine leukaemia); D1-4, i.p., optimum dose 12.5 mg/kg",172%
same,activity against P388 (in words),P388 (murine leukaemia); i.p. and i.v. routes,extremely active
same,activity against colon 38 compared with 5-fluoro-uracil (in words),colon 38; 25 mg/kg versus 5-fluoro-uracil at 80 mg/kg,as active at 25 mg/kg as 5-fluoro-uracil
same,median T/C % (tumour volume on D21),colon 38; 6.25 mg/kg,12%
same,median T/C % (tumour volume on D21),colon 38; 12.5 mg/kg,8%
same,median T/C % (tumour volume on D21),colon 38; 25 mg/kg,1%
same,activity against colon 38 (in words),colon 38; i.p.,very active
same,Minimum median T/C % (day),"[2]; 6.25 mg/kg, D0,7, i.p., minimum at D32",46%
same,activity against HT-29 (in words),"[2]; i.p., weekly for 2 weeks",active against that very resistant tumour
"COc1cc2c(c3c1c(=O)c1ccccc1n3C)[C@H](OC(=O)c1ccccc1)[C@@H](OC(=O)c1ccccc1)C(C)(C)O2 (relative stereo) [Example 3, (±)-trans-1,2-dibenzoyloxy-1,2-dihydro-acronycine]",IC50,murine leukaemia L1210,3.4 µM
"COc1cc2c(c3c1c(=O)c1ccccc1n3C)[C@@H](O)[C@@H](OC(=O)c1ccccc1)C(C)(C)O2 (relative stereo) [Example 5, (±)-cis-2-benzoyloxy-1-hydroxy-1,2-dihydro-acronycine]",IC50,murine leukaemia L1210,7.1 µM
same,T/C % (survival),"P388 (murine leukaemia); D1, i.p., optimum dose 12.5 mg/kg",258%
"COc1cc2c(c3c1c(=O)c1ccccc1n3C)[C@@H](OC(C)=O)[C@@H](OC(=O)c1ccccc1)C(C)(C)O2 (relative stereo) [Example 6, (±)-cis-1-acetoxy-2-benzoyloxy-1,2-dihydro-acronycine]",IC50,murine leukaemia L1210,5 µM
"COc1cc2c(c3c1c(=O)c1ccccc1n3C)[C@H]1OC(=O)O[C@H]1C(C)(C)O2 (relative stereo) [Example 7, (±)-cis-1,2-carbonyldioxy-1,2-dihydro-acronycine]",IC50,murine leukaemia L1210,0.2 µM
same,T/C % (survival),"P388 (murine leukaemia); D1, i.p., optimum dose 50 mg/kg",269%
"O=c1[nH]cc(F)c(=O)[nH]1 [5-fluoro-uracil, reference compound]",median T/C % (tumour volume on D21),colon 38; 80 mg/kg,0%
COc1cc2c(c3c1c(=O)c1ccccc1n3C)C=CC(C)(C)O2 [acronycine],clinical response,[3],little response
same,IC50,murine leukaemia L1210,27 µM
same,anti-tumour spectrum (in words),experimental models,broad spectrum of activity
same,T/C % (survival),"P388 (murine leukaemia); D1, i.p., optimum dose 200 mg/kg",125%
same,T/C % (survival),"P388 (murine leukaemia); D1-4, i.p., optimum dose 100 mg/kg",136%
same,activity against P388 (in words),"P388 (murine leukaemia); i.p. route, at far stronger doses",weak activity
same,solubility (in words),[4],insolubility
same,median T/C % (tumour volume on D21),colon 38; 100 mg/kg,77%
same,median T/C % (tumour volume on D21),colon 38; 200 mg/kg,61%
same,solubility (in words),Solubility,completely insoluble
same,oral bioavailability (in words),[5],poor bioavailability
